# Target: FLAG-tagged PDE2A1 (amino acids 2-941) (Homo sapiens (Human), UniProt O00408)
# Assay: IMAP TR-FRET PDE2A enzymatic assay
# Type: biochemical
# Conditions: 200 nM FAM-cAMP substrate, 11-point half-log dose-response
# Excerpt: An IMAP TR-FRET-based phosphodiesterase assay was developed using the PDE2A isoform. IMAP technology is based on high-affinity binding of phosphate by immobilized metal (MIII) coordination complexes on nanoparticles. The IMAP “binding reagent” recognizes phosphate groups on AMP or GMP generated from cAMP or cGMP in a PDE reaction. Cyclic nucleotides that carry a phosphodiester bond and not a free phosphate are not recognized by the binding reagent. The time resolved fluorescence resonance energy transfer (TR-FRET) is afforded by a Terbium (Tb)-Donor pre-bound to the nanoparticles. FRET occurs when the fluorescent-labeled AMP or GMP product of a PDE reaction binds and comes into close proximity to the Tb-Donor complex. Due to the long lifetime of Tb fluorescence, detection can be run in time-resolved mode to reduce or eliminate interference from auto-fluorescent compounds.
# The IMAP TR-FRET PDE2A assay was performed in 1536-well white plates. A total of 250 pg per well of FLAG-tagged PDE2A1 (amino acids 2-941) was dispensed in 2.5 μL IMAP assay buffer consisting of 10 mM Tris pH 7.2, 10 mM MgCl2, 1 mM DTT, and 0.1% fatty acid free BSA. 30 nL of compound was then added from 1 mM stocks in DMSO using a Kalypsys Pintool. Plates were incubated for 5 min at room temperature before dispensing 1.5 μL of 533 nM FAM-cAMP substrate for a final concentration of 200 nM. Following a brief centrifugation, plates were incubated for 30 min at room temperature. The assay was terminated by adding 5 μL IMAP binding reagent Tb complex to each well which was prepared according to manufacturer's recommendations (Molecular Devices). Plates were incubated an additional 90 minutes at room temperature and read on a Viewlux plate reader. All compounds were solvated at a concentration of 10 mM in DMSO and tested in 11-point half-log dose-response. Curve fitting and IC50 values were determined using a standard four parameter fit.
# Sequence of FLAG-tagged PDE2A1 (amino acids 2-941) (O00408 2-941): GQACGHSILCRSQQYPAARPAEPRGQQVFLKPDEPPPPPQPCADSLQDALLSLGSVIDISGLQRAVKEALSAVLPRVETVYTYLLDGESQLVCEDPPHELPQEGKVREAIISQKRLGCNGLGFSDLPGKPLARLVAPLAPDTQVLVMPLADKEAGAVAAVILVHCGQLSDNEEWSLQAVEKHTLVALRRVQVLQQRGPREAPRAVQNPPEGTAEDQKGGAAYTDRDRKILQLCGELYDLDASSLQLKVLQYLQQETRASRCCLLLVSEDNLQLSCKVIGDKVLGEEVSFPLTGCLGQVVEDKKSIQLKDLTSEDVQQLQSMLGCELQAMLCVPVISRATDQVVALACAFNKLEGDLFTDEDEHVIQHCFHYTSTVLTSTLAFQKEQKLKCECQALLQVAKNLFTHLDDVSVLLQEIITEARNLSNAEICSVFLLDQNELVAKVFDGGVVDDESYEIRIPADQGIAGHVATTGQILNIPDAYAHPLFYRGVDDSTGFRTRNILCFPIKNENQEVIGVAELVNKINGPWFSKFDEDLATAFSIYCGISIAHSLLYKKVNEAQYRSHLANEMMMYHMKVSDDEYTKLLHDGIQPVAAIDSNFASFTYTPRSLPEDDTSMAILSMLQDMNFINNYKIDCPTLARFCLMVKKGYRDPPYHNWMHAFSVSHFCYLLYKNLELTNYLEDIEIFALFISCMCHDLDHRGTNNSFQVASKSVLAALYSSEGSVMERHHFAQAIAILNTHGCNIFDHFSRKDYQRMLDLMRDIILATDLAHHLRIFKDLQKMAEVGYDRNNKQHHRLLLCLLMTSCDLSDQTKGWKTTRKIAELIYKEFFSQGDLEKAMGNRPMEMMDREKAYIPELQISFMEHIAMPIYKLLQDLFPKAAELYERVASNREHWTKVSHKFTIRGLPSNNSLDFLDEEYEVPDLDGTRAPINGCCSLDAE
row,SMILES,PDE2 (PIC50)
1,"COc1ccc(CNc2nc3nc(C(F)F)cc(C4CCOCC4)n3n2)cc1 [Example 29, 5-(Difluoromethyl)-N-[(4-methoxyphenyl)methyl]-7-(oxan-4-yl)-[1,2,4]triazolo[1,5-a]pyrimidin-2-amine]",>7
2,"COc1ccc(CNc2nc3nc(CF)cc(C4CCOCC4)n3n2)cc1 [Example 30, 5-(Fluoromethyl)-N-[(4-methoxyphenyl)methyl]-7-(oxan-4-yl)-[1,2,4]triazolo[1,5-a]pyrimidin-2-amine]",>7
3,"COc1cccc(-n2cc(CNc3nc4nc(C)cc(C5CCOCC5)n4n3)cn2)c1 [Example 31, N-{[1-(3-Methoxyphenyl)-1H-pyrazol-4-yl]methyl}-5-methyl-7-(oxan-4-yl)-[1,2,4]triazolo[1,5-a]pyrimidin-2-amine]",>7
4,"Cc1cc(C2CCOCC2)n2nc(NCc3cnn(-c4ccccc4C)c3)nc2n1 [Example 36, 5-Methyl-N-{[1-(2-methylphenyl)-1H-pyrazol-4-yl]methyl}-7-(oxan-4-yl)-[1,2,4]triazolo[1,5-a]pyrimidin-2-amine]",>7
5,"Cc1cc(C2CCOCC2)n2nc(NCc3cc(-c4ccccc4)no3)nc2n1 [Example 37, 5-Methyl-7-(oxan-4-yl)-N-[(3-phenyl-1,2-oxazol-5-yl)methyl]-[1,2,4]triazolo[1,5-a]pyrimidin-2-amine]",>7
6,"COc1ccc(CNc2nc3nc(C)cc(C4CCCOC4)n3n2)cc1 (centres unmarked) [Example 38, N-[(4-Methoxyphenyl)methyl]-5-methyl-7-(oxan-3-yl)-[1,2,4]triazolo[1,5-a]pyrimidin-2-amine]",>7
7,"Cc1cc(C2CCOCC2)n2nc(NCc3cccc(Br)c3)nc2n1 [Example 39, N-[(3-Bromophenyl)methyl]-5-methyl-7-(oxan-4-yl)-[1,2,4]triazolo[1,5-a]pyrimidin-2-amine]",>7
8,"Cc1cc(C2CCOCC2)n2nc(NCc3cccc(Cl)c3)nc2n1 [Example 40, N-[(3-Chlorophenyl)methyl]-5-methyl-7-(oxan-4-yl)-[1,2,4]triazolo[1,5-a]pyrimidin-2-amine]",>7
9,"Cc1cc(C2CCOCC2)n2nc(NCc3cccc(C(F)(F)F)c3)nc2n1 [Example 41, 5-Methyl-7-(oxan-4-yl)-N-{[3-(trifluoromethyl)phenyl]methyl}-[1,2,4]triazolo[1,5-a]pyrimidine-2-amine]",>7
10,"Cc1cc(C2CCOCC2)n2nc(NCc3ccc4c(c3)CCO4)nc2n1 [Example 42, N-(2,3-Dihydro-1-benzofuran-5-ylmethyl)-5-methyl-7-(oxan-4-yl)-[1,2,4]triazolo[1,5-a]pyrimidin-2-amine]",>7
11,"Cc1cc(C2CCOCC2)n2nc(NCc3cn(-c4ccccc4)nc3C)nc2n1 [Example 46, 5-Methyl-N-[(3-methyl-1-phenyl-1H-pyrazol-4-yl)methyl]-7-(oxan-4-yl)-[1,2,4]triazolo[1,5-a]pyrimidin-2-amine]",>7
12,"COc1cc(F)c(CNc2nc3nc(C)cc(C4CCOCC4)n3n2)c(F)c1 [Example 50, N-[(2,6-Difluoro-4-methoxyphenyl)methyl]-5-methyl-7-(oxan-4-yl)-[1,2,4]triazolo[1,5-a]pyrimidin-2-amine]",>7
13,"Cc1cc(C2CCOCC2)n2nc(NCc3ccnc(C(F)F)c3)nc2n1 [Example 52, N-{[2-(Difluoromethyl)pyridin-4-yl]methyl}-5-methyl-7-(oxan-4-yl)-[1,2,4]triazolo[1,5-a]pyrimidin-2-amine]",>7
14,"Cc1cc(CNc2nc3nc(C)cc(C4CCOCC4)n3n2)cc(C)n1 [Example 53, N-[(2,6-Dimethylpyridin-4-yl)methyl]-5-methyl-7-(oxan-4-yl)-[1,2,4]triazolo[1,5-a]pyrimidin-2-amine]",>7
15,"Cc1cncc(CNc2nc3nc(C)cc(C4CCOCC4)n3n2)c1 [Example 54, 5-Methyl-N-[(5-methylpyridin-3-yl)methyl]-7-(oxan-4-yl)-[1,2,4]triazolo[1,5-a]pyrimidin-2-amine]",>7
16,"COc1ccc(CNc2nc3nc(C)cc(C4(F)CCOCC4)n3n2)cc1 [Example 55, 7-(4-Fluorooxan-4-yl)-N-[(4-methoxyphenyl)methyl]-5-methyl-[1,2,4]triazolo[1,5-a]pyrimidin-2-amine]",>7
17,"Cc1cc(C2CCOCC2)n2nc(NCc3ccnc(C(F)(F)F)c3)nc2n1 [Example 59, 5-Methyl-7-(oxan-4-yl)-N-{[2-(trifluoromethyl)pyridin-4-yl]methyl}-[1,2,4]triazolo[1,5-a]pyrimidin-2-amine]",>7

# Same assay, conditions: 200 nM FAM-cAMP substrate, 11-point half-log dose-response, read-out: PDE2 (PIC50)
row,SMILES,IC50 [µM]
1,"Cc1cccc(CNc2nc3nc(C)cc(C4CCOCC4)n3n2)c1 [Example 28, 5-Methyl-N-[(3-methylphenyl)methyl]-7-(oxan-4-yl)-[1,2,4]triazolo[1,5-a]pyrimidin-2-amine]",0.1 to 1
2,"COc1ccc(F)c(CNc2nc3nc(C)cc(C4CCOCC4)n3n2)c1 [Example 32, N-[(2-Fluoro-5-methoxyphenyl)methyl]-5-methyl-7-(oxan-4-yl)-[1,2,4]triazolo[1,5-a]pyrimidin-2-amine]",0.1 to 1
3,"Cc1cc(C2CCOCC2)n2nc(NCc3ccccc3)nc2n1 [Example 33, N-Benzyl-5-methyl-7-(oxan-4-yl)-[1,2,4]triazolo[1,5-a]pyrimidin-2-amine]",0.1 to 1
4,"COc1ccc(CNc2nc3nc(C)cc(C4(C)CCOCC4)n3n2)cc1 [Example 34, N-[(4-Methoxyphenyl)methyl]-5-methyl-7-(4-methyloxan-4-yl)-[1,2,4]triazolo[1,5-a]pyrimidin-2-amine]",0.1 to 1
5,"Cc1cc(CNc2nc3nc(C)cc(C4CCOCC4)n3n2)ccn1 [Example 35, 5-Methyl-N-[(2-methylpyridin-4-yl)methyl]-7-(oxan-4-yl)-[1,2,4]triazolo[1,5-a]pyrimidin-2-amine]",0.1 to 1
6,"Cc1cc(CNc2nc3nc(C)cc(C4(C)CCOCC4)n3n2)ccn1 [Example 43, 5-Methyl-7-(4-methyloxan-4-yl)-N-[(2-methylpyridin-4-yl)methyl]-[1,2,4]triazolo[1,5-a]pyrimidin-2-amine]",0.1 to 1
7,"COc1ccc(CNc2nc3nc(C)cc(C4CCOC4)n3n2)cc1 (centres unmarked) [Example 44, N-[(4-Methoxyphenyl)methyl]-5-methyl-7-(oxolan-3-yl)-[1,2,4]triazolo[1,5-a]pyrimidin-2-amine]",0.1 to 1
8,"Cc1cc(C2CCOCC2)n2nc(NCc3ccc4c(c3)OC(F)(F)O4)nc2n1 [Example 45, N-[(2,2-Difluoro-2H-1,3-benzodioxol-5-yl)methyl]-5-methyl-7-(oxan-4-yl)-[1,2,4]triazolo[1,5-a]pyrimidin-2-amine]",0.1 to 1
9,"Cc1cc(C2CCOCC2)n2nc(NCc3ccccc3C)nc2n1 [Example 47, 5-Methyl-N-[(2-methylphenyl)methyl]-7-(oxan-4-yl)-[1,2,4]triazolo[1,5-a]pyrimidin-2-amine]",0.1 to 1
10,"Cc1cc(C2CCOCC2)n2nc(NCc3ccccc3Cl)nc2n1 [Example 48, N-[(2-Chlorophenyl)methyl]-5-methyl-7-(oxan-4-yl)-[1,2,4]triazolo[1,5-a]pyrimidin-2-amine]",0.1 to 1
11,"Cc1cc(C2CCOCC2)n2nc(NCc3cc(F)ccc3F)nc2n1 [Example 49, N-[(2,5-Difluorophenyl)methyl]-5-methyl-7-(oxan-4-yl)-[1,2,4]triazolo[1,5-a]pyrimidin-2-amine]",0.1 to 1
12,"Cc1cc(C2CCOCC2)n2nc(NCc3c(F)cccc3F)nc2n1 [Example 51, N-[(2,6-Difluorophenyl)methyl]-5-methyl-7-(oxan-4-yl)-[1,2,4]triazolo[1,5-a]pyrimidin-2-amine]",0.1 to 1
13,"Cc1cc(C2CCOCC2)n2nc(NCc3ccc(F)c(F)c3)nc2n1 [Example 56, N-[(3,4-Difluorophenyl)methyl]-5-methyl-7-(oxan-4-yl)-[1,2,4]triazolo[1,5-a]pyrimidin-2-amine]",0.1 to 1
14,"Cc1cc(C2CCOCC2)n2nc(NCc3ccc(F)cc3)nc2n1 [Example 57, N-[(4-Fluorophenyl)methyl]-5-methyl-7-(oxan-4-yl)-[1,2,4]triazolo[1,5-a]pyrimidin-2-amine]",0.1 to 1
15,"Cc1cc(C2CCOCC2)n2nc(NCc3cccc(F)c3)nc2n1 [Example 58, N-[(3-Fluorophenyl)methyl]-5-methyl-7-(oxan-4-yl)-[1,2,4]triazolo[1,5-a]pyrimidin-2-amine]",0.1 to 1
